Laboratory results published in PMC6409716, “Centipede KCNQ Inhibitor SsTx Also Targets KV1.3” (Toxins, 2019).
Like-named read-outs stand apart in the source and are kept apart here. Bridges are numbered along the chain shown (N, C = ends). Where no end group is shown, it is not given here.

Columns and labels:
[1] = biological target: T1, KV1.3 (Homo sapiens, UniProt P22001); assay: Whole-cell patch-clamp, KV1.3; format: cell-based; conditions: whole-cell recording, HEK293T and CHO cells transfected, 1000-ms depolarizing pulse of 10 mV from −80 mV, pH 7.3, room temperature, Hill fit
T1 construct: expressed in transfected cells; host or cells: HEK293T and CHO cells
Experimental: (§1) HEK293T and CHO cells were cultured as described in our previous work. The plasmid DNA (5μL, 1 μg/μL) of KV1.3 and KV7.4 channel was mixed with lipofectamine at a ratio of 1:1 in 200 μL Opti-MEM for 15–20 min, and the mixture was transferred to the cells plated in 20 mm cell culture dish for 12 h. After 24 h transfections, electrophysiological experiments were carried out at room temperature.
(§2) The cells expressing KV1.3 and KV7.4 were digested and plated on glass coverslips before current recording. The HEKA EPC10 amplifier (HEKA Elektronik, Ludwigshafen, Germany) was used to record currents in whole cells under the control of PATCHMASTER software (HEKA Elektronik, Ludwigshafen, Germany). A thin-wall borosilicate glass (A-M Systems) was used to pull patch pipettes and then the pipettes were fire-polished to 3–4 megohm. For whole-cell recordings, the capacity current was minimized by amplifier circuitry, and the series resistance was compensated by 30% to 65%. For KV1.3 and KV7.4 channel, intracellular solution contained 140 mM KCl, 10 mM EGTA, 2 mM MgCl2, 1 mM CaCl2, 10 mM HEPES (pH 7.3, adjusted with KOH), and extracellular solution contained 150 mM NaCl, 0.5 mM CaCl2, 5 mM KCl, 1.2 mM MgCl2, 10 mM HEPES (pH 7.3, adjusted with NaOH), and the current traces were tested by a 1000-ms depolarizing pulse of 10 mV from a holding voltage of −80 mV. The Hill logistic equation shown below was used to fit the Dose–response curves:y = 1 − (1 − fmax)/[1 + ([Tx]/IC50) n](1) where n is an empirical Hill coefficient, and fmax is the fraction of current resistant to inhibition at high toxin (Tx) concentration.

[2] = ref [8]; cited from earlier work
Source text: With over 3000 species, centipedes, arthropods of the class Chilopoda are widely distributed in both tropical and subtropical regions. Their first pair of legs have been modified into strong mandibles and venomous fangs called forcipules that play a critical role in defense and predation. Centipede stings occur frequently in areas, such as Hawaii, Brazil, Australia, Taiwan, and Japan, evoking an issue of social health care. Centipede toxins are composite mixtures, which are responsible for both local and systemic reactions. Recently, we have identified and characterized several pep ...

[3] = biological target: T2, KV7.4 (Homo sapiens, UniProt P56696); assay: Whole-cell patch-clamp, KV7.4; format: cell-based; conditions: whole-cell recording, HEK293T and CHO cells transfected; 1000-ms depolarizing pulse of 10 mV from −80 mV; pH 7.3; room temperature; Hill fit; n = 5 cells
T2 construct: expressed in transfected cells; host or cells: HEK293T and CHO cells
Experimental: as §1
as §2, with “The Hill logistic equation shown below was used to fit the Dose–response curves:y = 1 − (1 − fmax)/[1 + ([Tx]/IC50) n](1) where n is an empirical Hill coefficient, and fmax is the fraction of current resistant to inhibition at high toxin (Tx) concentration.” left out

[4] = n = 5 cells, read-out: IC50 on KV1.3 (mutants)

T1 sequence (P22001 whole entry): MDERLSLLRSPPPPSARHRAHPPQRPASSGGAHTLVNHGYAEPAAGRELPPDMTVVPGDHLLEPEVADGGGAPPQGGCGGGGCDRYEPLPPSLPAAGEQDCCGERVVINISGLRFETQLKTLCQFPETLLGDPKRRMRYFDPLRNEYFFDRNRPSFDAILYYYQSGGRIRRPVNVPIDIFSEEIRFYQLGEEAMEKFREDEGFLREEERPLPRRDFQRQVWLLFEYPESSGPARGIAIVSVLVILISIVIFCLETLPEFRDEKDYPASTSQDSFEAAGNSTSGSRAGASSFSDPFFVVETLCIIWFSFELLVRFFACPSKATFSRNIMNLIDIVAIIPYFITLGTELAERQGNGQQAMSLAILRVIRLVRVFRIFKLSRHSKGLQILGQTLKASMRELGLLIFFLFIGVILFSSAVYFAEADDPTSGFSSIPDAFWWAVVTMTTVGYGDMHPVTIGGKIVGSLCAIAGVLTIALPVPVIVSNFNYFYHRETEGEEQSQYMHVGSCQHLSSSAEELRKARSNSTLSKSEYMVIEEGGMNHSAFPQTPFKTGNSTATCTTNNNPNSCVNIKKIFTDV
T2 sequence (P56696 whole entry): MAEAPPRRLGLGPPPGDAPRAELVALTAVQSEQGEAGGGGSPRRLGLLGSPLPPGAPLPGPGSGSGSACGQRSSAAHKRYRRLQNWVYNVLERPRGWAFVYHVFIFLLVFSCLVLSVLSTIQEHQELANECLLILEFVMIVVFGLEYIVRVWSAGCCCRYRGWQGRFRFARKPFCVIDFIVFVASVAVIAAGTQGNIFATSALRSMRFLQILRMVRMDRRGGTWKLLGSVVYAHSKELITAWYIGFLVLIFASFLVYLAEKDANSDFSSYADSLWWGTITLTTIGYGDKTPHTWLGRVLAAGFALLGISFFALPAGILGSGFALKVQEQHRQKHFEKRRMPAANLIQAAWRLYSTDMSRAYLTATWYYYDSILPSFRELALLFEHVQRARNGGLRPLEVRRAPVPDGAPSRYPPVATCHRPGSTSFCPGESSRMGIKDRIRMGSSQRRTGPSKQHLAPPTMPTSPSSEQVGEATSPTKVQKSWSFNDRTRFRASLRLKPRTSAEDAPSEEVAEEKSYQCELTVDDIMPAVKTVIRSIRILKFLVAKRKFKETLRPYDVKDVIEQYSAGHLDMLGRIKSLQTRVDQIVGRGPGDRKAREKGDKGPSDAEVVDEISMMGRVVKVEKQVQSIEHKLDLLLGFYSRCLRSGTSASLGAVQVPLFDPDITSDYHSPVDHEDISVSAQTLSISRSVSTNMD

Sequence	IC50 [1, 4]	lethal toxicity [2]	IC50 ([1]; n = 10 cells, read-out: IC50 on KV1.3)	IC50 [3]
EVIKKDTPYKARKFPYKSECLKACATSFTGGDESRIQEGKPGFFKCTCYFTTG (disulfide 20-46, 24-48) [SsTx_K11A]	507 ± 0.61 µM	–	–	–
EVIKKDTPYKKAKFPYKSECLKACATSFTGGDESRIQEGKPGFFKCTCYFTTG (disulfide 20-46, 24-48) [SsTx_R12A]	22.23 ± 0.22 µM	–	–	–
EVIKKDTPYKKRAFPYKSECLKACATSFTGGDESRIQEGKPGFFKCTCYFTTG (disulfide 20-46, 24-48) [SsTx_K13A]	526.1 ± 0.48 µM	–	–	–
EVIKKDTPYKKRKFPYKSECLKACATSFTGGDESRIQEGKPGFFKCTCYFTTG (disulfide 20-46, 24-48) [SsTx, Ssm Spooky Toxin]	–	potent lethal toxicity by causing severe vessels and respiratory disorders or seizures	5.26 µM	2.8 ± 0.23 µM
